{"source": "patent US9833520B2", "about": "“Labeled, non-peptidic, multivalent integrin antagonist compounds; methods for synthesis and uses thereof” (The Methodist Hospital Research Institute, priority 2011, dated 2017)", "system": "U-87 xenograft tumors", "test": "In vivo and ex vivo NIR fluorescence imaging of U-87 xenograft tumor-bearing mice", "details": "co-administered with 10 nmol bivalent-IA-Cy5.5; 2, 4, 7, 24, 48 hrs", "procedure": "U-87 MG Xenograft Model, Animal procedures were performed according to approved protocols. Female athymic nude mice (nu/nu), obtained from Charles River Laboratories, Inc. (Cambridge, Mass., USA) at 4-6 weeks of age, were injected subcutaneously in the right rear thigh with 1×10^7 U-87 MG cells suspended in 100 μL of phosphate-buffered saline (PBS). The cancer cells were harvested from sub-confluent cultures with 0.25% trypsin. Trypsinization was stopped with DMEM containing 10% FBS, after which the cells were washed once in serum-free medium and resuspended in PBS. Trypan blue exclusion was performed to ensure >90% cell viability. The tumor bearing mice were subjected to in vivo imaging studies when the tumors reached 0.4-0.6 cm in diameter.\nIn vivo Fluorescence Imaging of Tumors. ˜3×10^6 U-87 cells were implanted bilaterally in the posterior flanks of immunocompromised (nu/nu) mice and grown to ˜4 to 6 mm in diameter. Imaging was carried out in groups of five mice. After palpable masses were detected, animals were manually restrained and imaging probes were intravenously administered (lateral tail vein) using a 30-Ga needle via aseptic technique. Free Cy5.5 was prepared by dissolving the same Cy5.5NHS ester used for labeling the bivalent IA (GE Healthcare, Piscatway, N.J., USA) in phosphate buffered saline (PBS), pH 7.4 overnight at 4° C. Stock concentration of free Cy5.5 was measured optically using the molar extinction coefficient of 250000M-1 cm-1 using a UV-visible spectrophotometer at the maximum absorbance wavelength (675 nm) as recommended by the manufacturer. The bivalent-IA-Cy5.5 was weighed and confirmed by spectrophotometric measurement. Appropriate dilutions of each probe were made in PBS, pH 7.4, and each was filter sterilized (0.2-μm) immediately prior to use. All animals weighed between 18 and 20 g, and each received 10 nmol of imaging probe (in a total volume of 100 μL). Fluorescence imaging was performed with a small animal-dedicated optical imaging system (Xenogen/Caliper IVIS-200, Mountain View, Calif., USA) under continuous 1.5-2.0% isoflurane delivered through the integrated anesthesia nosecone system. At 2-, 4-, 7-, 24-, and 48-hrs' post-injection, images were acquired with the surface of the tissue of interest (tumor) approximating a perpendicular viewing angle relative to the camera line of sight; this viewing angle was also used for normal tissue selection.\nFor determining tumor contrast, mean fluorescence intensities of the tumor area (T) defined as radiance (photons/sec/cm2/sr) at the right rear leg of the animal and of the area (N) at the right flank (normal tissue) were calculated by region-of-interest (ROI) analysis using the corresponding photograph of each image acquisition dataset to identify the tumor region. Pre-injection imaging was also performed to determine baseline autofluorescence. For competitive inhibition studies, mice (n=3) were co-injected with 500 nmol bivalent IA and 10 nmol of imaging probe (bivalent-IA-Cy5.5) following the same procedure described above. Free Cy5.5 studies were performed in the same manner following the intravenous injection of 10 nmol. For ex vivo biodistribution imaging, two tumor-bearing mice were imaged 24 hrs post injection of bivalent-IA-Cy5.5 and thereafter euthanized per IACUC protocol (CO2 and cervical dislocation). Tumor and major internal organs (heart, lung, liver, spleen, gastrointestinal tract, and kidneys) were harvested, weighed, and imaged against a black paper background. All image acquisition parameters were as follows: epi-illumination; Cy5.5 Em/Ex; Bin: (HR)4, FOV: 12.9; f2; 0.2 sec.", "note": "Entries after “also recorded” stand apart in the source; their conditions may differ."}
{"molecule": "NC(CCCCCC(=O)NCCS(=O)(=O)N[C@@H](CNC(=O)c1ccc(OCCNC2=NCCCN2)cc1)C(=O)O)C(=O)NCCS(=O)(=O)N[C@@H](CNC(=O)c1ccc(OCCNC2=NCCCN2)cc1)C(=O)O", "note": "(stereo partly shown) [bivalent IA]", "values": [{"measurement": "competitive inhibition of bivalent-IA-Cy5.5 tumor fluorescence signal", "value": "Significant blocking of tumor fluorescence signal; also recorded: reduced at all timepoints measured"}]}
